# Laboratory results as given in patent US11058671B2, “Formulations and methods of manufacturing formulations for use in colonic evacuation” (RedHill Biopharma Ltd., priority 2012, dated 2021).
# Assay: Excipient compatibility study (colour change / ascorbic acid degradation)
# Assay type: physicochemical
# Conditions: presence of metallic cations (such as Cu2+, Fe3+, Zn2+)
# Protocol: Excipient compatibility studies with all excipients against Na picosulfate and ascorbic acid were carried out. Antioxidants like Na meta-bisulphite, Na bisulphite and Na sulphite were added. Further, the study was carried out to determine if citric acid helped stabilize the colour change of ascorbic acid. Samples were assessed at 1 week, 2 weeks, 4 weeks and at 8 weeks.
# Tertiary mixtures with components (250 mg MgO+500 mg AA+25 mg Sulphites (or 100 mg Acids) • MgO+ascorbic acid+Na meta-sulphite • MgO+ascorbic acid+Na bisulphite • MgO+ascorbic acid+Na sulphite • MgO+ascorbic acid+citric acid • MgO+ascorbic acid+tartaric acid • MgO+sodium ascorbate+Na meta-sulphite • MgO+sodium ascorbate+Na bisulphite • MgO+sodium ascorbate+Na sulphite • MgO+sodium ascorbate+citric acid • MgO+sodium ascorbate+tartaric acid Quaternary mixtures with components ((250 m, MgO+500 mg AA+20 mg NaP+25 Sulphites (or 100 mg acids) • MgO+Na picosulfate+ascorbic acid+Na meta-sulphite • MgO+Na picosulfate+ascorbic acid+Na bisulphite • MgO+Na picosulfate+ascorbic acid+Na sulphite • MgO+Na picosulfate+ascorbic acid+citric acid • MgO+Na Picosulfate+ascorbic acid+tartaric acid
# Binary, tertiary and quaternary mixtures of the API and excipients at various ratios were prepared as follows: • 1. […] Add approximately half of the excipient quantity into a container. • 3. […]
smiles,measurement,value
O=C1O[C@H]([C@@H](O)CO)C(O)=C1O [ascorbic acid],Degradation of ascorbic acid with excipients,degrades in the presence of metallic cations
